# Assay results reported in patent US11571401B2, “Compounds, compositions, kits, and methods for activating immune cells and/or an immune system response” (East Carolina University, priority 2017, dated 2023).
# Key:
# B16F10 melanoma cells [1] = experiment: Cell surface calreticulin (CRT) expression by flow cytometry in B16F10 melanoma cells; type: cell-based, mouse
# Procedure: DAMPs are proteins that are expressed on the surface of cancer cells (e.g., calreticulin (CRT)) or are released from cancer cells (e.g., ATP and HMGB1) after exposure to DAMP inducing agents. DAMPs signal immune cell mediated cancer death.
# B16F10 melanoma cells were treated with 5 uM 15dPMJ2 (PMJ), 5 uM oxaliplatin (OX), drug vehicle (VEH, DMSO 0.1%) or cells remained untreated (UT) for 2 hours. After 2 hours, cell surface calreticulin (CRT) expression was measured by flow cytometric analysis.
# Brefeldin A is a molecule that inhibits the movement of proteins from the ER to the golgi apparatus (inhibits ER-golgi trafficking). Proteins must move from the ER to golgi in order translocate to the cell surface.
# B 16f10 cells were treated with vehicle (V), brefeldin A (BFA), 15dPMJ2 (PMJ) or brefeldin+15dPMJ2.
# A431 cells = experiment: Cell surface CD47 expression by flow cytometry in A431 cells; type: cell-based, human; conditions: A431 tumor cells vs drug vehicle (0.1% DMSO); FIG. 8
# Procedure: (§1) Tumorigenic, A431, and non-tumorigenic, HaCaT keratinocyte cell lines were treated with 15dPMJ2 or drug vehicle (0.1% DMSO) and the cell surface expression of calreticulin (CRT; “eat me” signal) and CD47 (“don't eat me” signal) was detected by conducting flow cytometric analysis.
# [2] = test system: non-tumorigenic, HaCaT keratinocyte cell line; experiment: Cell surface CD47 expression by flow cytometry in HaCaT keratinocytes; type: cell-based, human; conditions: HaCaT non-tumor keratinocytes vs drug vehicle (0.1% DMSO); FIG. 8
# Procedure: as §1
# B16F10 melanoma tumors = experiment: Tumor-infiltrating mature dendritic cells in B16F10 melanoma tumors in mice; type: in vivo; conditions: C57BL/6 mice, peri-tumor route, 5 days, 0.5 and 0.25 mg/kg (FIG. 10), compared to cisplatin-, oxaliplatin-treated and untreated animals
# Procedure: To determine if 15dPMJ2 can increase the amount of tumor-attacking immune cells in melanoma tumors, a pilot xenograft study was conducted. B16F10 melanoma cells were injected into the subcutaneous flank region of C57BL/6 mice and tumor growth was allowed until tumors were palpable. Animals were then treated by the peri-tumor route with 15dPMJ2, oxaliplatin (positive control DAMP inducer), cisplatin (negative control DAMP inducer), vehicle (PBS containing 0.1% DMSO) or animals were untreated. After 5 days of drug treatment, animals were euthanized and tumors excised for analysis of infiltrating immune cells (TILs). Tumors were dissociated to create a single cell suspension. The expression of MHC II and CD86 (dendritic cell maturation markers) was analyzed by conducting flow cytometric analysis.
# B16F10 melanoma cells [3] = experiment: Extracellular ATP release from B16F10 melanoma cells; type: cell-based, mouse
# Procedure: B16F10 melanoma cells were treated with 5 uM 15dPMJ2 (PMJ), 5uM oxaliplatin (OX), drug vehicle (VEH, DMSO 0.1%) or cells remained untreated (UT) for 4 hours. After 4 hours of drug treatment, the cell culture media from B16F10 cells was obtained to measured ATP levels.
# B16F10 cells were treated with 15dPMJ2 (PMJ), oxaliplatin (OX), or drug vehicle (VEH) in the presence or absence of the ER stress inhibitor, GSK2656157 (“inhibitor” (I)).
# tumor cells = conditions: background statement; see U.S. Pat. No. 9,328,060; cited from earlier work
# [4] = test system: non-tumorigenic, HaCaT keratinocyte cell line; experiment: Cell surface CRT expression by flow cytometry in HaCaT keratinocytes; type: cell-based, human; conditions: HaCaT non-tumor keratinocytes vs drug vehicle (0.1% DMSO); FIG. 7
# Procedure: as §1
# A431 cells (NMSC) = experiment: Cell surface CRT expression by flow cytometry in A431 cells; type: cell-based, human
# Procedure: (§2) A431 cells (NMSC) and HT-29 (colon cancer) cells were treated with 15dPMJ2, oxaliplatin (OX), drug vehicle (VEH) or cells were untreated (UT) for 2 hours. Cell surface CRT expression was then detected by flow cytometric analysis.
# as §1
# [5] = test system: immature dendritic cells isolated from the bone marrow of C57BL/6 mice; experiment: Dendritic cell maturation: drug-treated B16F10 cells co-cultured with immature bone marrow dendritic cells; type: cell-based, mouse; conditions: FIG. 9
# Procedure: B16F10 melanoma cells remained untreated (UT) or were treated with lipopolysaccharide (LPS; positive control dendritic cell activator), vehicle (VEH; 0.1% DMSO), 500 uM oxaliplatin (OXA; positive control DAMP inducer), or 5 uM 15dPMJ2 (PMJ). The drug-treated cancer cells were then co-cultured with immature dendritic cells that were isolated from the bone marrow of C57BL/6 mice (mouse strain from which the B16F10 cell line was derived). Cell surface markers for dendritic cell maturation were then detected.
# [6] = test system: HT-29 (colon cancer) cells; experiment: Cell surface CRT expression by flow cytometry in HT-29 cells; type: cell-based; conditions: 5 μM (FIG. 6), 2 hours
# Procedure: as §2
compound,measurement,setting,value
"C[C@H]1CCC/C=C/[C@@H]2C[C@H](O)C[C@H]2[C@H](O)/C=C/C(=O)O1 [Brefeldin A, reference compound]",15dPMJ2-mediated cell surface CRT expression in presence of brefeldin A,"B16F10 melanoma cells [1]; brefeldin + 15dPMJ2, FIG. 4",inhibited 15dPMJ2-mediated cell surface CRT expression
"CCCCC/C=C/C=C1/C(=O)C=CC1C/C=C/CCCC(=O)NCCO (centres unmarked) [Formula 15dPMJ2, 15-deoxy Δ^12,14-prostagladin J2-ethanolamide]",cell surface expression of CD47 (don't eat me signal),A431 cells,decreased
same,cell surface expression of CD47 (don't eat me signal),[2],increase
same,cell surface calreticulin (CRT) expression,"B16F10 melanoma cells [1]; 5 uM, 2 hours, flow cytometry, FIG. 1",significantly greater than oxaliplatin
same,"quantity of mature dendritic cells (MHC II, CD86) that infiltrated the tumor",B16F10 melanoma tumors,increased the quantity of mature dendritic cells that infiltrated the tumor
same,ATP release (extracellular ATP in cell culture media),"B16F10 melanoma cells [3]; 5 uM, 4 hours, FIG. 2",significantly increased ATP release compared to vehicle and oxaliplatin treated cells
same,cell death in tumor cells compared to non-tumor cells,tumor cells,preferentially causes cell death in tumor cells compared to non-tumor cells
same,cell surface expression of calreticulin (CRT; eat me signal),[4],slight increase
same,cell surface CRT expression (DAMP expression),"A431 cells (NMSC); A431 cells, 5 μM (FIG. 5), 2 hours",potent inducer of DAMP expression
same,cell surface expression of calreticulin (CRT; eat me signal),"A431 cells (NMSC); A431 tumor cells vs drug vehicle (0.1% DMSO), FIG. 7",increased
same,expression of MHC II and CD86 (dendritic cell maturation markers),"[5]; B16F10 cells treated with 5 uM 15dPMJ2, then co-cultured with BMDCs",significantly increased the expression of MHC II and CD86
same,cell surface CRT expression (DAMP expression),[6],potent inducer of DAMP expression
"Cc1cccc(CC(=O)N2CCc3c2ccc(-c2cn(C)c4ncnc(N)c24)c3F)n1 [GSK2656157, reference compound]",extracellular ATP levels after 15dPMJ2 in presence of the ER stress inhibitor,"B16F10 melanoma cells [3]; inhibitor + 15dPMJ2 vs 15dPMJ2 alone, FIG. 3",significantly decreased extracellular ATP levels
"O=C1[O][Pt]2([NH][C@@H]3CCCC[C@H]3[NH]2)[O]C1=O [Oxaliplatin, oxaliplatin, reference compound]",dendritic cell maturation (MHC II and CD86),"[5]; B16F10 cells treated with 500 uM oxaliplatin (100 times the concentration of 15dPMJ2), then co-cultured with BMDCs, compared with 15dPMJ2",caused similar levels of dendritic cell maturation
